{"source": "ChEMBL document CHEMBL1201862", "about": "“PubChem BioAssay data set” (2004)", "assay_in_all_cases": "NCI-60 cell line screen, 48 h", "key": {"SK-MEL-28": {"system": "SK-MEL-28"}, "COLO 205": {"system": "COLO 205"}, "OVCAR-3": {"system": "OVCAR-3"}, "A549": {"system": "A549"}, "CCRF-CEM": {"system": "CCRF-CEM"}, "U-251": {"system": "U-251"}, "DU-145": {"system": "DU-145"}, "OVCAR-5": {"system": "OVCAR-5"}, "MOLT-4": {"system": "MOLT-4"}, "Hs-578T": {"system": "Hs-578T"}, "NCI-H226": {"system": "NCI-H226"}, "A498": {"system": "A498"}, "HCT-116": {"system": "HCT-116"}, "MCF7": {"system": "MCF7"}, "OVCAR-8": {"system": "OVCAR-8"}, "SF-539": {"system": "SF-539"}, "HT-29": {"system": "HT-29"}, "HCT-15": {"system": "HCT-15"}, "SN12C": {"system": "SN12C"}, "PC-3": {"system": "PC-3"}, "SF-268": {"system": "SF-268"}, "UO-31": {"system": "UO-31"}, "SNB-19": {"system": "SNB-19"}, "NCI-H460": {"system": "NCI-H460"}, "TK-10": {"system": "TK-10"}, "SNB-75": {"system": "SNB-75"}, "SW-620": {"system": "SW-620"}, "BT-549": {"system": "BT-549"}, "SK-MEL-5": {"system": "SK-MEL-5"}, "CAKI-1": {"system": "CAKI-1"}, "HOP-62": {"system": "HOP-62"}, "K562": {"system": "K562"}, "SK-OV-3": {"system": "SK-OV-3"}, "MDA-N": {"system": "MDA-N"}, "HOP-92": {"system": "HOP-92"}, "T47D": {"system": "T47D"}, "HL-60": {"system": "HL-60"}, "HCC 2998": {"system": "HCC 2998"}, "SK-MEL-2": {"system": "SK-MEL-2"}, "786-0": {"system": "786-0"}, "OVCAR-4": {"system": "OVCAR-4"}, "ACHN": {"system": "ACHN"}, "SF-295": {"system": "SF-295"}, "M14": {"system": "M14"}, "LOX IMVI": {"system": "LOX IMVI"}, "MDA-MB-435": {"system": "MDA-MB-435"}, "SR": {"system": "SR"}, "NCI-H522": {"system": "NCI-H522"}, "RPMI-8226": {"system": "RPMI-8226"}, "RXF 393": {"system": "RXF 393"}, "NCI-H23": {"system": "NCI-H23"}, "EKVX": {"system": "EKVX"}, "MDA-MB-231": {"system": "MDA-MB-231"}, "IGROV-1": {"system": "IGROV-1"}, "KM12": {"system": "KM12"}, "Malme-3M": {"system": "Malme-3M"}, "NCI/ADR-RES": {"system": "NCI/ADR-RES"}, "UACC-62": {"system": "UACC-62"}, "UACC-257": {"system": "UACC-257"}}, "note": "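The compound was tested at five concentrations on cells cultured in 96-well plates, with a 48-hour exposure period. GI50 = concentration required for 50% inhibition of growth.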 Active and inactive are the calls of the source. No stated cut-off is given here; in the data, active = GI50 up to about 1.1 µM and inactive = higher.", "data": [{"smiles": "CCOC(=O)Cn1c(=O)c2cc(-c3ccccc3)cc3c(Cl)nc4c(OC)c(OC)cc1c4c32", "values": [{"measurement": "GI50", "setting": "SK-MEL-28", "result": "21 µM (inactive)"}, {"measurement": "GI50", "setting": "COLO 205", "result": "50.6 µM (inactive)"}, {"measurement": "GI50", "setting": "OVCAR-3", "result": "20.9 µM (inactive)"}, {"measurement": "GI50", "setting": "A549", "result": "28 µM (inactive)"}, {"measurement": "GI50", "setting": "CCRF-CEM", "result": "5.16 µM (inactive)"}, {"measurement": "GI50", "setting": "U-251", "result": "31.2 µM (inactive)"}, {"measurement": "GI50", "setting": "DU-145", "result": "21.4 µM (inactive)"}, {"measurement": "GI50", "setting": "OVCAR-5", "result": "> 100 µM (inactive)"}, {"measurement": "GI50", "setting": "MOLT-4", "result": "3.1 µM (inactive)"}, {"measurement": "GI50", "setting": "Hs-578T", "result": "6.97 µM (inactive)"}, {"measurement": "GI50", "setting": "NCI-H226", "result": "> 39.6 µM (inactive)"}, {"measurement": "GI50", "setting": "A498", "result": "17 µM (inactive)"}, {"measurement": "GI50", "setting": "HCT-116", "result": "13.9 µM (inactive)"}, {"measurement": "GI50", "setting": "MCF7", "result": "9.14 µM (inactive)"}, {"measurement": "GI50", "setting": "OVCAR-8", "result": "15.6 µM (inactive)"}, {"measurement": "GI50", "setting": "SF-539", "result": "87.5 µM (inactive)"}, {"measurement": "GI50", "setting": "HT-29", "result": "13.8 µM (inactive)"}, {"measurement": "GI50", "setting": "HCT-15", "result": 15, "unit": "µM"}, {"measurement": "GI50", "setting": "SN12C", "result": "16.2 µM (inactive)"}, {"measurement": "GI50", "setting": "PC-3", "result": "15.9 µM (inactive)"}, {"measurement": "GI50", "setting": "SF-268", "result": "9.93 µM (inactive)"}, {"measurement": "GI50", "setting": "UO-31", "result": "2.07 µM (inactive)"}, {"measurement": "GI50", "setting": "SNB-19", "result": "19 µM (inactive)"}, {"measurement": "GI50", "setting": "NCI-H460", "result": "17.1 µM (inactive)"}, {"measurement": "GI50", "setting": "TK-10", "result": "31.7 µM (inactive)"}, {"measurement": "GI50", "setting": "SNB-75", "result": "15.3 µM (inactive)"}, {"measurement": "GI50", "setting": "SW-620", "result": "17.7 µM (inactive)"}, {"measurement": "GI50", "setting": "BT-549", "result": "18.5 µM (inactive)"}, {"measurement": "GI50", "setting": "SK-MEL-5", "result": "24.7 µM (inactive)"}, {"measurement": "GI50", "setting": "CAKI-1", "result": "27.2 µM (inactive)"}, {"measurement": "GI50", "setting": "HOP-62", "result": "28.8 µM (inactive)"}, {"measurement": "GI50", "setting": "K562", "result": "13.8 µM (inactive)"}, {"measurement": "GI50", "setting": "SK-OV-3", "result": "43.8 µM (inactive)"}, {"measurement": "GI50", "setting": "MDA-N", "result": "17.7 µM (inactive)"}, {"measurement": "GI50", "setting": "HOP-92", "result": "10.7 µM (inactive)"}, {"measurement": "GI50", "setting": "T47D", "result": "16 µM (inactive)"}, {"measurement": "GI50", "setting": "HL-60", "result": "4.89 µM (inactive)"}, {"measurement": "GI50", "setting": "HCC 2998", "result": "16.7 µM (inactive)"}, {"measurement": "GI50", "setting": "SK-MEL-2", "result": "15 µM (inactive)"}, {"measurement": "GI50", "setting": "786-0", "result": "14.8 µM (inactive)"}, {"measurement": "GI50", "setting": "OVCAR-4", "result": "21.6 µM (inactive)"}, {"measurement": "GI50", "setting": "ACHN", "result": "19.9 µM (inactive)"}, {"measurement": "GI50", "setting": "SF-295", "result": "40.7 µM (inactive)"}, {"measurement": "GI50", "setting": "M14", "result": "15.6 µM (inactive)"}, {"measurement": "GI50", "setting": "LOX IMVI", "result": "11.6 µM (inactive)"}, {"measurement": "GI50", "setting": "MDA-MB-435", "result": "17.4 µM (inactive)"}, {"measurement": "GI50", "setting": "SR", "result": "1.99 µM (inactive)"}, {"measurement": "GI50", "setting": "NCI-H522", "result": "14.8 µM (inactive)"}, {"measurement": "GI50", "setting": "RPMI-8226", "result": "4.91 µM (inactive)"}, {"measurement": "GI50", "setting": "RXF 393", "result": "14.8 µM (inactive)"}, {"measurement": "GI50", "setting": "NCI-H23", "result": "15.3 µM (inactive)"}, {"measurement": "GI50", "setting": "EKVX", "result": "12.4 µM (inactive)"}, {"measurement": "GI50", "setting": "MDA-MB-231", "result": "17.6 µM (inactive)"}, {"measurement": "GI50", "setting": "IGROV-1", "result": "13 µM (inactive)"}, {"measurement": "GI50", "setting": "KM12", "result": "31.6 µM (inactive)"}, {"measurement": "GI50", "setting": "Malme-3M", "result": "0.578 µM (active)"}, {"measurement": "GI50", "setting": "NCI/ADR-RES", "result": "16.9 µM (inactive)"}, {"measurement": "GI50", "setting": "UACC-62", "result": "14.8 µM (inactive)"}, {"measurement": "GI50", "setting": "UACC-257", "result": "18.6 µM (inactive)"}]}]}
